Data: patent US6066484A, “Purine nucleosidase” (Suntory Limited, priority 1996, dated 2000)
“Also recorded” adds a separate entry of the source.

Key:
Assay type in all cases: biochemical, Ochrobactrum anthropi
purine nucleosidase [1] = assay: Effect of metal ions on purine nucleosidase; settings: for Relative activity: 1 mM metal, pH 4.5, 30° C., 40 minutes, not added = 100.0; for Inhibition or activation of purine nucleosidase by metal ions (in words): 1 mM metal ion
Procedure: (§1) The reaction solution (200 μl) contained 0.5 mM of adenosine or inosine or 0.25 mM of guanosine as the substrate, 50 mM of acetate buffer at pH 4.5 and a sufficient amount of enzyme. The reaction was initiated by addition of the enzyme, and the reaction was conducted at 50° C. for 5 minutes. The reaction was terminated by addition of 20 μl of 15% perchloric acid, and after centrifugation (35,000 rpm, 10 min) the supernatant was analyzed qualitatively by thin-layer chromatography (TLC) and quantitatively by high-performance liquid chromatography. The analysis methods were as follows.
Various metal ions were added to the activity measuring solution in an amount of 1 mM to measure the activity. The reaction was conducted at pH 4.5, 30° C. for 40 minutes.

purine nucleosidase [2] = assay: Substrate specificity of purine nucleosidase by thin-layer chromatography; set-up: key to Relative activity: -: not reacted; +: <10%; ++: <31%; +++: <50%; ++++: >50%; settings: for Relative activity: thin-layer chromatography
Procedure: as §1
(1) Thin-layer chromatography
Plate: Kieselgel 60F254 (Merk)
Developing solution: n-butanol/isopropanol/H2 O/NH4 OH=1:7:2:0.2 (v/v/v/v) (for adenosine and guanosine substrates), n-butanol/acetic acid/H2 O=5:1:1 (v/v/v) (for inosine substrate)
The substrate specificity of the purine nucleosidase was determined by thin-layer chromatography (TLC).
(§2) The specific activity was measured under conditions of 50° C., pH 4.5. The Km and Vmax were measured under conditions of 30° C., pH 4.5. The relative activity was expressed according to the following measurement method.

purine nucleosidase [3] = assay: Effect of inhibitors on purine nucleosidase; settings: 1 mM inhibitor; for Relative activity: pH 4.5, 30° C., 20 minutes, not added = 100.0
Procedure: as §1
The activity was measured after adding 1 mM of different inhibitors to the activity measurement solution. The reaction was conducted at pH 4.5, 30° C. for 20 minutes.

[4] = tested on: Active fraction 1 (purine nucleosidase activity); assay: Purine nucleosidase activity of active fraction 1 (1st DEAE-Sephacel)
Procedure: After suspending 20 g of the wet cells in 40 ml of 10 mM Tris-HCl buffer solution (pH 7.4) (hereunder referred to as "buffer"), they were disrupted in a Dynamill at 4° C. for 10 minutes. After filtering the disrupted cell suspension it was centrifuged (10,000 rpm, 60 min) and the supernatant was used as a cell-free extract. The cell-free extract (250 ml) was dialyzed for 12 hours against 5 L of buffer and then applied to a DEAE-Sephacel column (3×30 cm, 200 ml) which had been equilibrized with the buffer. The adsorbed protein was eluted with an NaCl concentration gradient from 0 to 1.0 M and the active fractions were recovered.
The purine nucleosidase activity at this time was split into two peaks (FIG. 1). Fraction nos. 46 to 69 were collected as the first active fraction and fraction nos. 85 to 101 were collected as the second active fraction.
as §1

[5] = tested on: Active fraction 2 (purine nucleosidase activity); assay: Purine nucleosidase activity of active fraction 2 (1st DEAE-Sephacel)
purine nucleosidase [6] = assay: Specific activity, Km and Vmax of purine nucleosidase; settings: pH 4.5
Procedure: as §1
(2) High-performance liquid chromatography
Eluent: 0.1 M sodium chlorate tetrahydrate, 0.1% (v/v) phosphoric acid
as §2

Work on `[Cl-].[K+]` [KCl] yielded a Relative activity (purine nucleosidase [1]) of 100.9%.
With `Nc1ncnc2c1ncn2[C@@H]1O[C@H](CO)[C@@H](OP(=O)(O)O)[C@H]1O` [3'-AMP, 3'-adenosine monophosphate] the Relative activity (purine nucleosidase [2]) was “++ (<31%)”.
In the case of `Nc1ncnc2c1ncn2[C@@H]1O[C@H](CO)[C@@H](O)[C@H]1OP(=O)(O)O` [2'-AMP, 2'-adenosine monophosphate], the Relative activity (purine nucleosidase [2]) is reported as “++ (<31%)”.
With 5'-bromouridine the Relative activity (purine nucleosidase [2]) was “-”.
With `NC(=O)c1ccc[n+]([C@@H]2O[C@H](COP(=O)([O-])OP(=O)(O)OC[C@H]3O[C@@H](n4cnc5c(N)ncnc54)[C@H](OP(=O)(O)O)[C@@H]3O)[C@@H](O)[C@H]2O)c1` [β-NADP] the Relative activity (purine nucleosidase [2]) was “-”.
For `O=S(=O)([O-])[O-].[Cu+2]` [CuSO4], the “Inhibition or activation of purine nucleosidase by metal ions (in words)” value (“Inhibition or activation” below) (purine nucleosidase [1]; listed as Cu^2+) was “Inhibition occurred; also recorded: Inhibited” and the Relative activity (purine nucleosidase [1]) was 42.7%.
With `[F-].[Na+]` [sodium fluoride] the “Inhibition of purine nucleosidase (in words)” value (purine nucleosidase [3]) was “Inhibition occurred; also recorded: inhibited” and the Relative activity (purine nucleosidase [3]) was 62.2%.
For `[Cl][Fe]([Cl])[Cl]` [FeCl3], the Relative activity (purine nucleosidase [1]) was 100.0%.
With `O=c1ccn([C@@H]2O[C@H](CO)[C@@H](O)[C@H]2O)c(=O)[nH]1` [uridine] the Relative activity (purine nucleosidase [2]) was “-”.
With `O=C(O)c1cc(SSc2ccc([N+](=O)[O-])c(C(=O)O)c2)ccc1[N+](=O)[O-]` [DTNB, 5,5'-dithiobis(2-nitrobenzoic acid)] the “Inhibition of purine nucleosidase (in words)” value (purine nucleosidase [3]) was “Inhibition occurred; also recorded: inhibited” and the Relative activity (purine nucleosidase [3]) was 37.4%.
With `O=c1ccn([C@H]2C[C@H](O)[C@@H](CO)O2)c(=O)[nH]1` [2'-deoxyuridine] the Relative activity (purine nucleosidase [2]) was “-”.
For `[Cl-].[Cs+]` [CsCl], the Relative activity (purine nucleosidase [1]) was 106.9%.
For `NC(=O)c1ccc[n+]([C@@H]2O[C@H](COP(=O)([O-])OP(=O)(O)OC[C@H]3O[C@@H](n4cnc5c(N)ncnc54)[C@H](O)[C@@H]3O)[C@@H](O)[C@H]2O)c1` [β-NAD, β-nicotinamide adenine dinucleotide], the Relative activity (purine nucleosidase [2]) was “+ (<10%)”.
For `Nc1ncnc2c1ncn2[C@H]1C[C@H](O)[C@@H](CO)O1` [2'-deoxyadenosine], the Relative activity (purine nucleosidase [2]) was “++ (<31%)”.
With `NC(=O)c1ccc[n+]([C@@H]2O[C@H](COP(=O)([O-])O)[C@@H](O)[C@H]2O)c1` [β-NMN] the Relative activity (purine nucleosidase [2]) was “-”.
In the case of `Nc1nc2c(ncn2[C@@H]2O[C@H](COP(=O)(O)O)[C@@H](O)[C@H]2O)c(=O)[nH]1` [5'-GMP, 5'-guanosine monophosphate], the Relative activity (purine nucleosidase [2]) is reported as “+ (<10%)”.
In the case of `NC(=O)c1ccc[n+]([C@@H]2O[C@H](COP(=O)([O-])OP(=O)(O)OC[C@H]3O[C@@H](n4cnc5c(=O)[nH]cnc54)[C@H](O)[C@@H]3O)[C@@H](O)[C@H]2O)c1` [deamino NAD], the Relative activity (purine nucleosidase [2]) is reported as “-”.
`[Cl-].[Cl-].[Co+2]` [CoCl2] gave a Relative activity (purine nucleosidase [1]) of 82.9%.
Work on `NNc1ccccc1` [phenylhydrazine] yielded a Relative activity (purine nucleosidase [3]) of 100.4%.
`O=C(O)CN(CCN(CC(=O)O)CC(=O)O)CC(=O)O` [EDTA-Na2] was tested, and the Relative activity (purine nucleosidase [3]) was 54.4%.
With `Oc1cccc2cccnc12` [8-hydroxyquinoline] the Relative activity (purine nucleosidase [3]) was 8.5%.
`[Cl-].[Na+]` [NaCl] was tested, and the Relative activity (purine nucleosidase [1]) was 93.3%.
In the case of `[Cl][Hg][Cl]` [HgCl2], the “Inhibition or activation” value (purine nucleosidase [1]; listed as Hg^2+) is reported as “Inhibition occurred; also recorded: Inhibited” and the Relative activity (purine nucleosidase [1]) is reported as 39.4%.
In the case of `Nc1ncnc2c1ncn2[C@@H]1O[C@H](CO)C[C@H]1O` [cordycepin], the Relative activity (purine nucleosidase [2]) is reported as “++ (<31%)”.
Work on `O=[As]([O-])([O-])O.[Na+].[Na+]` [sodium arsenate] yielded a Relative activity (purine nucleosidase [3]) of 69.4%.
With `Nc1ncnc2c1ncn2[C@@H]1O[C@H](CO)[C@@H](O)[C@H]1O` [adenosine] the “Specific activity, Active fraction 1” value ([4]; 30° C.) was 0.70 µmol/min/mg, the “Specific activity, Active fraction 1” value ([4]; 50° C.) was 3.6 µmol/min/mg and the “Specific activity, Active fraction 2” value ([5]; 30° C.) was 0.59 µmol/min/mg. For the same compound, the “Specific activity, Active fraction 2” value ([5]; 50° C.) was 0.45 µmol/min/mg, the “decomposition of purine nucleosides (in words)” value (purine nucleosidase [2]; pH 5.5 and 60° C.) was “capable of decomposing” and the Relative activity (purine nucleosidase [2]) was “++++ (>50%)”. The Km (purine nucleosidase [6]; 30° C.) was 17.1 µM, the Vmax (purine nucleosidase [6]; 30° C.) was 28.5 µmol/min/mg and the Specific activity (purine nucleosidase [6]; 50° C.) was 292 µmol/min/mg.
For `c1cnc2c(c1)ccc1cccnc12` [o-phenanthroline], the Relative activity (purine nucleosidase [3]) was 78.3%.
With `Nc1ccn([C@@H]2O[C@H](CO)[C@@H](O)[C@H]2OP(=O)(O)O)c(=O)n1` [2'-CMP] the Relative activity (purine nucleosidase [2]) was “+ (<10%)”.
With `[N-]=[N+]=[N-]` [sodium azide] the “Inhibition of purine nucleosidase (in words)” value (purine nucleosidase [3]) was “Inhibition occurred; also recorded: inhibited” and the Relative activity (purine nucleosidase [3]) was 72.9%.
Work on `O=S(=O)([O-])[O-].[Fe+2]` [FeSO4] yielded a Relative activity (purine nucleosidase [1]) of 92.6%.
Work on `CCN1C(=O)C=CC1=O` [N-ethylmaleimide] yielded a Relative activity (purine nucleosidase [3]) of 107.9%.
For `Nc1ccn([C@@H]2O[C@H](COP(=O)(O)O)[C@@H](O)[C@H]2O)c(=O)n1` [5'-CMP], the Relative activity (purine nucleosidase [2]) was “-”.
`[Cl][Al]([Cl])[Cl]` [AlCl3] showed a Relative activity (purine nucleosidase [1]) of 73.6%.
In the case of `O=S(=O)([O-])[O-].[Zn+2]` [ZnSO4], the “Inhibition or activation” value (purine nucleosidase [1]; listed as Zn^2+) is reported as “Inhibition occurred; also recorded: Inhibited” and the Relative activity (purine nucleosidase [1]) is reported as 74.9%.
For `[Cl-].[Cl-].[Mg+2]` [MgCl2], the Relative activity (purine nucleosidase [1]) was 91.6%.
Compound `[Cl][Ni][Cl]` [NiCl2] has a Relative activity (purine nucleosidase [1]) of 91.3%.
For `Nc1ncnc2c1ncn2[C@@H]1O[C@H](COP(=O)(O)O)[C@@H](O)[C@H]1O` [5'-AMP, 5'-adenosine monophosphate], the Relative activity (purine nucleosidase [2]) was “++ (<31%)”.
In the case of `O=C1CCC(=O)N1Br` [N-bromosuccimide], the Relative activity (purine nucleosidase [3]) is reported as 113.7%.
In the case of `[Cl][Mn][Cl]` [MnCl2], the “Inhibition or activation” value (purine nucleosidase [1]; listed as Mn^2+) is reported as “Inhibition occurred; also recorded: Inhibited” and the Relative activity (purine nucleosidase [1]) is reported as 65.5%.
With 2'-chloroadenosine the Relative activity (purine nucleosidase [2]) was “++++ (>50%)”.
For `O=C(O)c1cc[c]([Hg][Cl])cc1` [p-CMB], the Relative activity (purine nucleosidase [3]) was 80.2%.
With `O=C(O)CI` [iodoacetic acid] the Relative activity (purine nucleosidase [3]) was 99.4%.
`[Ba+2].[Cl-].[Cl-]` [BaCl2] was tested, and the Relative activity (purine nucleosidase [1]) was 86.1%.
For `NNC(N)=O` [semicarbazide], the Relative activity (purine nucleosidase [3]) was 103.4%.
Compound `[Cl-].[Rb+]` [RbCl] has a Relative activity (purine nucleosidase [1]) of 106.5%.
With `O=c1[nH]c(=O)c2ncn([C@@H]3O[C@H](COP(=O)(O)O)[C@@H](O)[C@H]3O)c2[nH]1` [5'-XMP] the Relative activity (purine nucleosidase [2]) was “+ (<10%)”.
For `[Ca+2].[Cl-].[Cl-]` [CaCl2], the Relative activity (purine nucleosidase [1]) was 101.7%.
In the case of `O=c1[nH]cc([C@@H]2O[C@H](CO)[C@@H](O)[C@H]2O)c(=O)[nH]1` [pseudouridine], the Relative activity (purine nucleosidase [2]) is reported as “-”.
With `O=[Se](O)O` [sodium selenite] the “Inhibition of purine nucleosidase (in words)” value (purine nucleosidase [3]) was “Inhibition occurred; also recorded: inhibited”.
For `O=c1ccn([C@@H]2O[C@H](COP(=O)(O)O)[C@@H](O)[C@H]2O)c(=O)[nH]1` [5'-UMP], the Relative activity (purine nucleosidase [2]) was “-”.
`[Cl][Sn][Cl]` [SnCl2] showed a Relative activity (purine nucleosidase [1]) of 113.2%.
Compound `[Cl][Pb][Cl]` [PbCl2] has a Relative activity (purine nucleosidase [1]) of 111.0%.
With `[Cl-].[Li+]` [LiCl] the Relative activity (purine nucleosidase [1]) was 103.0%.
`O=S(=O)([O-])[O-].[Be+2]` [BeSO4] gave a Relative activity (purine nucleosidase [1]) of 88.9%.
For `Cl.NO` [NH2 OH·HCl], the Relative activity (purine nucleosidase [3]) was 106.6%.
`[Cl][Cd][Cl]` [CdCl2] was tested, and the Relative activity (purine nucleosidase [1]) was 124.9%.
With `O=S(=O)([O-])[O-].[Ag+].[Ag+]` [Ag2 SO4] the “Inhibition or activation” value (purine nucleosidase [1]; listed as Ag^+) was “Inhibition occurred; also recorded: Inhibited” and the Relative activity (purine nucleosidase [1]) was 31.6%.
In the case of `Nc1ccn([C@@H]2O[C@H](CO)[C@@H](O)[C@H]2O)c(=O)n1` [cytidine], the Relative activity (purine nucleosidase [2]) is reported as “-”.
For `O=c1[nH]cnc2c1ncn2[C@@H]1O[C@H](COP(=O)(O)OP(=O)(O)O)[C@@H](O)[C@H]1O` [5'-IDP], the Relative activity (purine nucleosidase [2]) was “-”.
With `Cc1cn([C@H]2C[C@H](O)[C@@H](CO)O2)c(=O)[nH]c1=O` [thymidine] the Relative activity (purine nucleosidase [2]) was “-”.
In the case of `O=c1[nH]cnc2c1ncn2[C@@H]1O[C@H](CO)[C@@H](O)[C@H]1OP(=O)(O)O` [2'-IMP], the Relative activity (purine nucleosidase [2]) is reported as “-”.
